# Columns and labels:
# [1] = target: T1, 3-hydroxyanthranilate 3,4-dioxygenase (Homo sapiens) (UniProt P46952); assay: Inhibition of 3-HAO in human brain homogenates using [1-14C]-3-HANA as substrate assessed as [14C]-QUIN production at 10 uM after 1 hr by liquid scintillation spectrometric analysis relative to control; assay type: tissue-based
# T1 sequence (whole entry): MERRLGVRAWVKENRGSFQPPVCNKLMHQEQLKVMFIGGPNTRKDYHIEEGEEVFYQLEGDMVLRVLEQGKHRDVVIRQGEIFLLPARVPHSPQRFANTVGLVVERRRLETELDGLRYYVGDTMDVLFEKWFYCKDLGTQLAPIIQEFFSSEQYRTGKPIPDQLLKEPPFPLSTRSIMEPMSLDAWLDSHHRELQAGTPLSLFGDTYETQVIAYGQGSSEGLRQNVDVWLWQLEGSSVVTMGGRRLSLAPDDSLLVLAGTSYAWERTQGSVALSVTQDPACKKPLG
# [2] = target: T2, 3-hydroxyanthranilate 3,4-dioxygenase (Rattus norvegicus) (UniProt P46953); assay: Inhibition of 3-HAO in Sprague-Dawley rat brain homogenates using [1-14C]-3-HANA as substrate assessed as [14C]-QUIN production at 10 uM after 1 hr by liquid scintillation spectrometric analysis relative to control; assay type: tissue-based
# T2 sequence (whole entry): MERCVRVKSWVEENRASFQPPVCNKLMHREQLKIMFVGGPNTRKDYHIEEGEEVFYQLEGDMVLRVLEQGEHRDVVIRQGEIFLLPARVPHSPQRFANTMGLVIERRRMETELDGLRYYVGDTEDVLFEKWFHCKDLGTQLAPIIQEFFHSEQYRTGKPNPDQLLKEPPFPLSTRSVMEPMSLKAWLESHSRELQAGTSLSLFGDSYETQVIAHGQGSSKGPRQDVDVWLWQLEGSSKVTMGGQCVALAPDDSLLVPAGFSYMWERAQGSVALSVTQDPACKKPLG
# [3] = target: T1, 3-hydroxyanthranilate 3,4-dioxygenase (Homo sapiens); assay: Inhibition of 3-HAO in human brain homogenates using [1-14C]-3-HANA as substrate assessed as [14C]-QUIN production at 100 uM after 1 hr by liquid scintillation spectrometric analysis relative to control; assay type: tissue-based
# [4] = target: T2, 3-hydroxyanthranilate 3,4-dioxygenase (Rattus norvegicus); assay: Inhibition of 3-HAO in Sprague-Dawley rat brain homogenates using [1-14C]-3-HANA as substrate assessed as [14C]-QUIN production at 1 mM after 1 hr by liquid scintillation spectrometric analysis relative to control; assay type: tissue-based
# [5] = target: T1, 3-hydroxyanthranilate 3,4-dioxygenase (Homo sapiens); assay: Inhibition of 3-HAO in human brain homogenates using [1-14C]-3-HANA as substrate assessed as [14C]-QUIN production at 1 mM after 1 hr by liquid scintillation spectrometric analysis relative to control; assay type: tissue-based
# [6] = target: T2, 3-hydroxyanthranilate 3,4-dioxygenase (Rattus norvegicus); assay: Inhibition of 3-HAO in Sprague-Dawley rat brain homogenates using [1-14C]-3-HANA as substrate assessed as [14C]-QUIN production at 100 uM after 1 hr by liquid scintillation spectrometric analysis relative to control; assay type: tissue-based
# [7] = Drug degradation in PBS buffer assessed as parent compound level at 100 uM after 24 hrs by HPLC/UV-vis spectroscopic analysis; assay type: physicochemical; conditions: read-out: Stability
# [8] = target: T3, 3-hydroxyanthranilate 3,4-dioxygenase (Rattus norvegicus, UniProt P46953); assay: Inhibition of 3-HAO in Sprague-Dawley rat brain homogenates using [1-14C]-3-HANA as substrate assessed as [14C]-QUIN production after 1 hr by liquid scintillation spectrometric analysis; assay type: tissue-based
# T3 sequence (P46953 whole entry): T2 sequence (whole entry)
# [9] = Drug degradation in PBS buffer assessed as parent compound level at 10 uM after 24 hrs by HPLC/UV-vis spectroscopic analysis; assay type: physicochemical; conditions: read-out: Stability
# [10] = target: T4, 3-hydroxyanthranilate 3,4-dioxygenase (Homo sapiens, UniProt P46952); assay: Inhibition of 3-HAO in human brain homogenates using [1-14C]-3-HANA as substrate assessed as [14C]-QUIN production after 1 hr by liquid scintillation spectrometric analysis; assay type: tissue-based
# T4 sequence (P46952 whole entry): T1 sequence (whole entry)
# [11] = tested on: Rattus norvegicus; assay: In vivo inhibition of 3-HAO in excitotoxically lesioned Sprague-Dawley rat striatum assessed as de novo formation of [3H]-QUIN administered as intrastriatally measured after 2 hrs (reference value: 3.4 +/- 0.5%); assay type: functional
# [12] = Chemical stability in PBS buffer assessed as auto-oxidative degradation after 24 hrs by HPLC analysis; assay type: physicochemical; conditions: read-out: Drug degradation
Compound,inhibition [1] [%],inhibition [2] [%],inhibition [3] [%],inhibition [4] [%],inhibition [5] [%],inhibition [6] [%],"remaining at 24 h, 100 µM [7] [%]",IC50 [8] [nM],"remaining at 24 h, 10 µM [9] [%]",IC50 [10] [nM],[3H]-QUIN formed [11] [%],degraded at 24 h [12] [%]
Cc1cc(C(=O)O)c(N)[n+]([O-])c1C,31.3,17.6,76.3,85.8,89.1,61.6,,,,,,
O=C(O)c1ccc(Cl)[n+]([O-])c1,-5.4,2.9,-3,37,30.4,11.4,,,,,,
Nc1c(C(=O)O)ccc(Cl)[n+]1[O-],72.9,67.3,89.6,95.2,95.2,84,,,,,,
CCc1cc(C)[n+]([O-])c(N)c1C(=O)O,8.5,2.8,10.9,23,20,3.1,,,,,,
COC(=O)c1ccc(C)[n+]([O-])c1N,-7.9,1,-5.8,9.3,6,1.2,,,,,,
CC(C)c1cc(C(C)C)[n+]([O-])c(N)c1C(=O)O,-5.4,1.2,1.5,14.6,10.6,2.9,,,,,,
Cc1cc(-c2ccccc2)c(C(=O)O)c(N)[n+]1[O-],-2.8,2.4,4.1,14.8,7.4,5.5,,,,,,
Cc1ccc(C(=O)O)c(N)[n+]1[O-],85.5,76.9,92.3,96,94.4,94.1,102,2800,101,1100,0.9,
Cc1cc(C(=O)O)c(N)[n+]([O-])c1,16.3,8.7,52.6,67.6,80.1,30.7,,,,,,
Cc1cc(C(C)C)c(C(=O)O)c(N)[n+]1[O-],4,1.1,10.2,25.7,24.1,2.2,,,,,,
O=c1[nH]cnc2c1ccc[n+]2[O-],5.5,0.6,13,46.9,44.3,6.4,,,,,,
Nc1c(C(=O)O)cc(Br)c[n+]1[O-],22.9,14.5,67.2,83.7,89.1,55.2,,,,,,
CCc1ccc(C(=O)O)c(N)[n+]1[O-],76.6,69.9,88.4,94.2,90.4,90.7,,,,,,
Cc1ccc(C#N)c(N)[n+]1[O-],-2.9,-2.4,-0.5,2.4,5.6,-0.6,,,,,,
Nc1c(C(=O)O)ccc[n+]1[O-],74,47.6,88.8,92.4,94,84.9,103,,101,,,
Nc1c(C(=O)O)ccc(Cl)c1O,,,,,,,,,,,,62
Cc1ccc(C(N)=O)c(N)[n+]1[O-],1.7,-1.1,1.3,11.5,20.1,-2,,,,,,
Cc1cc(C)[n+]([O-])c(N)c1C(=O)O,0.7,-0.8,16.3,46.6,69.5,4.3,,,,,,
Nc1c(C(=O)O)cc(Cl)c[n+]1[O-],24.8,9.1,68.6,74.4,85.9,42.6,,,,,,
Cc1ccc(C(=O)O)c(N)n1,-3.6,-2.1,0.7,42.5,24.8,5.1,,,,,,
